Earlier results in patent US20250027956A1, “Improved Gamma-Secretase Inhibitor Screening Assays” (VIB VZW, priority 2021, published 2025).

Legend:
Conditions in all cases: cited from earlier work
lysosomal exocytosis = test system: lysosomal exocytosis
[1] = test system: NPC1−/− neural stem cells
[2] = test system: cultured skin fibroblasts of NPC patients

O=c1c(-c2ccc(O)cc2)coc2cc(O)cc(O)c12 [Genistein]
lysosomal exocytosis and cholesterol accumulation (lysosomal exocytosis): increase lysosomal exocytosis with a decrease in cholesterol accumulation

CCCC(CCC)C(=O)O [Valproic acid]
benefit in NPC1−/− neural stem cells [1]: some benefit

O=C(CCCCCCC(=O)Nc1ccccc1)NO [Vorinostat, suberanilohydroxamic acid]
accumulation of lipids in the lysosomes [2]: reduces the accumulation of lipids in the lysosomes
